From PubChem BioAssay AID192 (DTP/NCI, 2004) come the findings set out here.

“And” between values parts separate entries of the source, which are not always exact repeats. Equal values may be shown once. Inconclusive results and toxic doses are left out.

In the assay the test system is BDF1 mice, B16 melanoma ip, median survival T/C. Kind of assay: NCI In Vivo Anticancer Drug Screen. Data for tumor model B16 Melanoma (intraperitoneal) in B6D2F1 (BDF1) mice. Conditions: endpoint: median survival time, higher = longer survival. Summed up:
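Values are ratios of treated (T) to vehicle-control (C) measurements of survival or tumor size in tumor-bearing mice.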

Where [1] appears, read: dose: 100.0 mg/kg/injection, schedule: Q04DX003 (ip), vehicle: saline with Tween-80.
Setting [2] is: dose: 200.0 mg/kg/injection, schedule: Q04DX003 (ip), vehicle: saline with Tween-80.
The mark [3] stands for this setting: dose: 50.0 mg/kg/injection, schedule: Q01DX009 (ip), vehicle: Klucel (hydroxypropylcellulose) (HPC).
[4] abbreviates: dose: 100.0 mg/kg/injection, schedule: Q01DX009 (ip), vehicle: Klucel (hydroxypropylcellulose) (HPC).
Where [5] appears, read: dose: 200.0 mg/kg/injection, schedule: Q01DX009 (ip), vehicle: Klucel (hydroxypropylcellulose) (HPC).
[6] abbreviates: dose: 12.5 mg/kg/injection, schedule: Q01DX009 (ip), vehicle: saline.
[7] abbreviates: dose: 25.0 mg/kg/injection, schedule: Q01DX009 (ip), vehicle: saline.
Where [8] appears, read: dose: 50.0 mg/kg/injection, schedule: Q01DX009 (ip), vehicle: saline.
Where [9] appears, read: dose: 100.0 mg/kg/injection, schedule: Q01DX009 (ip), vehicle: saline with Tween-80.
Where [10] appears, read: dose: 200.0 mg/kg/injection, schedule: Q01DX009 (ip), vehicle: saline with Tween-80.
Setting [11] is: dose: 400.0 mg/kg/injection, schedule: Q01DX009 (ip), vehicle: saline with Tween-80.
The mark [12] stands for this setting: dose: 3.12 mg/kg/injection, schedule: Q01DX009 (ip), vehicle: Klucel (hydroxypropylcellulose) (HPC).
The mark [13] stands for this setting: dose: 25.0 mg/kg/injection, schedule: Q01DX009 (ip), vehicle: Klucel (hydroxypropylcellulose) (HPC).
The mark [14] stands for this setting: dose: 400.0 mg/kg/injection, schedule: Q01DX009 (ip), vehicle: Klucel (hydroxypropylcellulose) (HPC).
The mark [15] stands for this setting: dose: 6.25 mg/kg/injection, schedule: Q01DX009 (ip), vehicle: Klucel (hydroxypropylcellulose) (HPC).
Where [16] appears, read: dose: 12.5 mg/kg/injection, schedule: Q01DX009 (ip), vehicle: saline with Tween-80.
Where [17] appears, read: dose: 25.0 mg/kg/injection, schedule: Q01DX009 (ip), vehicle: saline with Tween-80.
Setting [18] is: dose: 50.0 mg/kg/injection, schedule: Q01DX009 (ip), vehicle: saline with Tween-80.

For `COC1CCCCC1I` (centres undefined), the T/C by setting is: (dose: 50.0 mg/kg/injection, schedule: Q01DX009 (ip), vehicle: alcohol) 100 % of control; (dose: 75.0 mg/kg/injection, schedule: Q04DX003 (ip), vehicle: alcohol) 95 % of control; (dose: 100.0 mg/kg/injection, schedule: Q01DX009 (ip), vehicle: alcohol) 92 % of control; (dose: 150.0 mg/kg/injection, schedule: Q04DX003 (ip), vehicle: alcohol) 92 % of control.

Take `CC(C)OCCS(=O)(=O)Oc1ncc(Cl)cc1Cl`: the T/C reads like this: under setting [1], 100 % of control; under setting [2], 93 % of control.

As to `COc1cccc2c1C(=O)c1c(O)c3c(c(O)c1C2=O)C[C@H](O)C[C@@H]3OC1CC(N)C(O)C(C)O1` (some centres undefined), the T/C (dose: 12.5 mg/kg/injection, schedule: Q01DX001 (ip), vehicle: water) was 169 % of control; the T/C (dose: 50.0 mg/kg/injection, schedule: Q01DX001 (ip), vehicle: water) is 110 % of control and 169 % of control and 267 % of control; the T/C (dose: 100.0 mg/kg/injection, schedule: Q01DX001 (ip), vehicle: water) is 110 % of control.

With `C=C(NC(=O)C(=C)NC(=O)c1csc(C2=NC3c4csc(n4)C4NC(=O)c5csc(n5)C(C(C)(O)C(C)O)NC(=O)C5CSC(=N5)/C(=C/C)NC(=O)C(C(C)O)NC(=O)c5csc(n5)C3(CC2)NC(=O)C(C)NC(=O)C(=C)NC(=O)C(C)NC(=O)C(C(C)CC)NC2C=Cc3c(C(C)O)cc(nc3C2O)C(=O)OC4C)n1)C(N)=O` (centres undefined), the T/C runs as follows: under setting [3], 106 % of control; under setting [4], 109 % of control; under setting [5], 112 % of control.

Consider `CCCCOCCC1CCNCC1`, for which the T/C under setting [6] is 116 % of control, the T/C under setting [7] is 106 % of control and the T/C under setting [8] is 110 % of control.

In the case of `COc1cc(Cc2nccc3cc(OC)c(OC)cc23)c(C(C)=O)c(OC)c1`, the T/C was 101 % of control (dose: 10.0 mg/kg/injection, schedule: Q01DX009 (ip), vehicle: saline); 107 % of control (dose: 20.0 mg/kg/injection, schedule: Q01DX009 (ip), vehicle: saline); 107 % of control (dose: 40.0 mg/kg/injection, schedule: Q01DX009 (ip), vehicle: saline); 107 % of control (dose: 80.0 mg/kg/injection, schedule: Q01DX009 (ip), vehicle: saline).

In the case of `NC(Cc1ccc(O)cc1)C(=O)O` (centres undefined), the T/C was 110 % of control under setting [9]; 107 % of control under setting [1]; 87 % of control under setting [10]; 104 % of control under setting [2]; 90 % of control under setting [11]; 104 % of control (dose: 400.0 mg/kg/injection, schedule: Q04DX003 (ip), vehicle: saline with Tween-80).

Take `O=NN(CCCl)C(=O)Nc1ccc2c3c(cccc13)-c1ccccc1-2`: the T/C by setting is: (dose: 1.56 mg/kg/injection, schedule: Q01DX009 (ip), vehicle: Klucel (hydroxypropylcellulose) (HPC)) 111 % of control; under setting [12], 124 % of control; under setting [13], 158 % of control and 175 % of control; under setting [3], 170 % of control; under setting [4], 150 % of control; under setting [5], 150 % of control.

As to `COC(=O)CCNCc1ccccc1`, the T/C reads like this: under setting [4], 100 % of control; under setting [5], 96 % of control; under setting [14], 93 % of control.

For `CC[CH2][Pb]([CH2]CC)([CH2]CC)[N]1C(=O)c2ccccc2C1=O`, the T/C was 109 % of control under setting [12] and 101 % of control under setting [15].

On to `Cc1ccc(NS(=O)(=O)c2ccc(F)cc2)cc1C`, for which the T/C under setting [4] was 96 % of control, the T/C under setting [5] was 100 % of control and the T/C under setting [14] is 93 % of control.

On to `COC(=O)C1(N)CCCC1`, for which the T/C was 105 % of control and 110 % of control (dose: 6.25 mg/kg/injection, schedule: Q01DX009 (ip), vehicle: saline); 108 % of control and 109 % of control and 122 % of control under setting [6]; 121 % of control and 123 % of control under setting [7].

For the compound `O=[N+]([O-])c1ccc2ccccc2c1I`, the T/C by setting is: under setting [9], 101 % of control; under setting [10], 103 % of control; under setting [11], 99 % of control.

For the compound `O=S(=O)(OCC(F)(F)F)c1ccccc1`, the T/C is 109 % of control under setting [3], 100 % of control under setting [4] and 97 % of control under setting [5].

Take `CCCCCCCCCCCCCCCCCC(=O)Nc1ccn(C2OC(CO)C(O)C2O)c(=O)n1` (centres undefined): the T/C is, setting by setting: under setting [16], 154 % of control; under setting [17], 165 % of control and 203 % of control.

With `CC(=O)OCc1c(O)c2c(c(O)c1COC(C)=O)C(=O)C=CC2=O`, the T/C reads like this: under setting [15], 94 % of control; (dose: 12.5 mg/kg/injection, schedule: Q01DX009 (ip), vehicle: Klucel (hydroxypropylcellulose) (HPC)) 91 % of control; under setting [13], 89 % of control.

Take `c1cc2cc3c(cc2c2c1CC1c4cc5c(cc4CCN1C2)OCO5)OCO3` (centres undefined): the T/C runs as follows: under setting [4], 89 % of control; under setting [5], 86 % of control.

For `C/C(=N\O)c1ccccn1`, the T/C was 110 % of control (dose: 50.0 mg/kg/injection, schedule: Q01DX009 (ip), vehicle: other); 111 % of control (dose: 100.0 mg/kg/injection, schedule: Q01DX009 (ip), vehicle: other); 97 % of control (dose: 200.0 mg/kg/injection, schedule: Q01DX009 (ip), vehicle: other); 90 % of control (dose: 400.0 mg/kg/injection, schedule: Q01DX009 (ip), vehicle: other).

Consider `O=C(CCl)N1c2ccccc2Oc2cc3ccccc3cc21`, for which the T/C is 113 % of control under setting [8]; 106 % of control (dose: 100.0 mg/kg/injection, schedule: Q01DX009 (ip), vehicle: saline); 104 % of control (dose: 200.0 mg/kg/injection, schedule: Q01DX009 (ip), vehicle: saline); 109 % of control (dose: 400.0 mg/kg/injection, schedule: Q01DX009 (ip), vehicle: saline).

Regarding `O=[N+]([O-])c1cc([N+](=O)[O-])c(Nn2c3ccccc3c3ccccc32)c([N+](=O)[O-])c1`, the T/C by setting is: under setting [16], 86 % of control; under setting [17], 88 % of control; under setting [18], 93 % of control.

As to `CCCCCCCCCCCCCCCC[N+](C)(C)C`, the T/C (dose: 0.5 mg/kg/injection, schedule: Q04DX003 (ip), vehicle: saline) is 95 % of control; the T/C (dose: 1.0 mg/kg/injection, schedule: Q01DX009 (ip), vehicle: saline) was 93 % of control; the T/C (dose: 1.0 mg/kg/injection, schedule: Q04DX003 (ip), vehicle: saline) was 95 % of control; the T/C (dose: 1.25 mg/kg/injection, schedule: Q01DX009 (ip), vehicle: saline with Tween-80) is 102 % of control; the T/C (dose: 2.0 mg/kg/injection, schedule: Q01DX009 (ip), vehicle: saline) was 93 % of control; the T/C (dose: 2.0 mg/kg/injection, schedule: Q04DX003 (ip), vehicle: saline) is 95 % of control. Besides, the T/C (dose: 2.5 mg/kg/injection, schedule: Q01DX009 (ip), vehicle: saline with Tween-80) was 107 % of control; the T/C (dose: 2.75 mg/kg/injection, schedule: Q01DX009 (ip), vehicle: saline) was 93 % of control; the T/C (dose: 4.0 mg/kg/injection, schedule: Q01DX009 (ip), vehicle: saline) is 91 % of control; the T/C (dose: 5.0 mg/kg/injection, schedule: Q01DX009 (ip), vehicle: saline with Tween-80) is 91 % of control; the T/C (dose: 5.5 mg/kg/injection, schedule: Q01DX009 (ip), vehicle: saline) is 93 % of control.

As to `CC(NC(=O)OC(C)(C)C)C(=O)ON1C(=O)CCC1=O` (centres undefined), the T/C reads like this: under setting [18], 102 % of control; under setting [9], 92 % of control.
